This note sets out measurements from patent US8895069B2, “Drug delivery system using hyaluronic acid-peptide conjugate micelle” (Postech Academy-Industry Foundation, priority 2011, dated 2014).

Experiment [1] concerns the target T1, binding between Flt1-Fc and VEGF165 (Homo sapiens, UniProt P17948).
T1 construct: purchased R&D Systems
The experiment is described as follows: Inhibition of binding between Flt1-Fc and VEGF165 (chemiluminescence ELISA). The procedure: A VEGF165 solution (with a concentration in PBS of 0.5 μg/mL) (R&D System) was put into 96-black well-plate, and reacted overnight at 4° C. to give a VEGF165-coated well. After being washed with PBS, the well was blocked with a blocking buffer (which is a BSA solution with BSA(Sigma-Aldrich) dissolved therein at a concentration of 3 wt % in a PBS buffer solution at pH 7.4) and washed again with PBS (at room temperature for 2 hours). The solutions of the anti-Flt1 peptide (GGNQWFI) (SEQ ID NO: […]) (SEQ ED NO: 3) and 500 ng/mL of Flt1-Fc (R&D systems, Minneapolis, Minn.) in a solution of BSA(Sigma-Aldrich) as dissolved in PBS (pH 7.4) at 1 wt %, or the solution of the hyaluronic acid-peptide conjugate with a lower peptide content of Preparation Example 3 test group (HA-GGNQWFI) (as prepared by conjugating 20 peptides per one HA-TBA molecule) was added to the VEGF165-coated well, and incubated at room temperature for one hour. […] Then, after the well was washed with a PBS comprising 0.05 wt % of Tween 20 three times and washed with a PBS once, the amount of the conjugated Flt1-Fc was measured with BM chemiluminescence ELISA substrate system (Victor 3 luminometer, PerkinElmer, Mass.). […]
The luminescence value of the positive control group without being treated with anti-FR1 peptide was set to be 100% and other data were normalized.

For experiment [2], the system named is methacholine airway hyper-responsiveness. Put plainly: Methacholine airway hyper-responsiveness (Penh) in OVA/LPS asthma model. To be noted: 24 hours after the last allergen challenge, intranasal. The class given is in vivo, BALB/c mice. How it is done: The biological activity of the hyaluronic acid-peptide conjugate with a lower peptide concentration (HA-GGNQWFI) in accordance with Preparation Example 3 was measured through the reaction to methacholine. Specifically, as to the airway hyper-responsiveness (AHR), the laboratory rat (in vivo) was made to keep exercising naturally without being put under anesthesia and the enhanced pause (Penh), the number reflecting the airway obstruction as represented by Mathematical Equation 1 was measured by using plethysmography. In this experimentation was used a non-invasive method wherein the measurement was conducted without correcting or putting the laboratory animal under anesthesia. Penh=[(Te/RT−1)×(PEF/PIF)] [Mathematical Equation 1]
In Mathematical Equation 1, Te represents an expiratory time (seconds), RT represents a relaxation time (seconds), PEF represents a peak expiratory flow […], and PIF represents a peak inspiratory flow (ml/s).
As the laboratory mouse, BALB/c mice (female, 6 week old, 5 per each group) were used. […]
The pulmonary function was measured on the 23th day by using the non-invasive whole body plethysmographs for the mouse that was not put under anesthesia. […] The aerosol was prepared by using an ultrasonic nebulizer and the laboratory mouse was exposed to methacholine for 3 minutes and then the Penh was measured for 5 minutes.

The subject of experiment [3] is vascular hyperpermeability due to diabetic retinopathy. Put plainly: Vascular hyperpermeability due to diabetic retinopathy, genistein-loaded micelle (Experimental Example 14). The class given is in vivo, Sprague Dawley (SD) male rats. The note with it: normal = 1, negative control 2.54±0.20; Avastin 10 mg/ml; micelle 3.2 mg/ml peptide; four weeks after streptozotocin. How it is done: First, each rat was injected intraperitonially with 60 mg/kg of streptozotocin dissolved in 10 mM citrate buffer at pH 4.5 in order for diabetes to be induced. In three days after the injection of streptozotocin, the rat was determined to develop diabetes when its serum concentration of glucose was at least 300 mg/dL. In a week after the injection of streptozotocin, 10 μL of each sample solution was injected into the vitroeus body.

Experiment [4] deals with retinal blood vessel. Put plainly: Electron microscopy of retinal blood vessel in diabetic retinopathy. The class given is in vivo, Sprague Dawley (SD) male rats. The note with it: diabetic retinopathy rats.

Ends that are not written are not given here.

T1 sequence (P17948 with tags, fused parts or gaps isoform P17948-2 limits assumed): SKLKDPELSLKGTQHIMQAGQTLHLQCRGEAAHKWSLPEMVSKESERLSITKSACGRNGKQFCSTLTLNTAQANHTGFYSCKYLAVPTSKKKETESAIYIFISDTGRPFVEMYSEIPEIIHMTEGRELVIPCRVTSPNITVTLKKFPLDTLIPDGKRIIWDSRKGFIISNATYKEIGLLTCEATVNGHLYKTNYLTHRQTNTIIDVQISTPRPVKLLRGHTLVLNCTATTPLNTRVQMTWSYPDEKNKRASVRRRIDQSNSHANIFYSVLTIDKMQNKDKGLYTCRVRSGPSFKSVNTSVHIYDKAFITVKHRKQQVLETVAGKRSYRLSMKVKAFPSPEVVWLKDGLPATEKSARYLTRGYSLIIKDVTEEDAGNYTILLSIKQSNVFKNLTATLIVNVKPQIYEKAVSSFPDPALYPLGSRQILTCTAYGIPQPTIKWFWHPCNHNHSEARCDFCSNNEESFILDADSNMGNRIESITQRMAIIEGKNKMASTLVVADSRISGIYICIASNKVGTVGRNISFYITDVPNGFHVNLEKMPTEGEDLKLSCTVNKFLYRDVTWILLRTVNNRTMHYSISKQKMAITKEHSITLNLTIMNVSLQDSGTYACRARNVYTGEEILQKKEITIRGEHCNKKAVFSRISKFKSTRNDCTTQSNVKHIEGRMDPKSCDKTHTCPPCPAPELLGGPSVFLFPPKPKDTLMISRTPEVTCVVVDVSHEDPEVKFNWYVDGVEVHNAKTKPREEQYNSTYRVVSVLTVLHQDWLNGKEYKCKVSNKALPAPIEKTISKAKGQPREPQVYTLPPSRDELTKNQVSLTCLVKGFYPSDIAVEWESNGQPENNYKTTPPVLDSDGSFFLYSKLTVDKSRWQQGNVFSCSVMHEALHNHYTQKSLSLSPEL

As for “HA-GGNQWFI: hyaluronic acid (MW 100 kDa) conjugated with GGNQWFI, 20 peptides per one molecule of HA-TBA (also: conjugated to hyaluronic acid, about 20 peptides per HA)”, the “inhibition of the bonding between VEGF165 and Flt1-Fc, up to” value in experiment [1] (dose-dependent, 20-20000 nM peptide, positive control set to 100%) is reported as “about 32%”. The methacholine airway hyper-responsiveness entry in experiment [2] is reported as “greatly reduced to a level similar to that of the normal control group”. For the same substance, the “average intensity of the fluorescence of retina relative to normal group (1)” value in experiment [3] amounted to 1.58±0.17.

Regarding GGNQWFI [anti-Flt1 peptide, GGNQWFI], the “inhibition of the bonding between VEGF165 and Flt1-Fc” value in experiment [1] (at 200 nM) is “failed to inhibit”. In addition, the “structure of the retinal blood vessel (electron microscope)” value in experiment [4] was “the blood vessel had a rounded shape although the endothelial cell layer was thin”. The methacholine airway hyper-responsiveness result in experiment [2] is listed as “inferior to the hyaluronic acid-peptide conjugate”.
